Assay [1] concerns MIA PaCa-2 (KRAS G12C) cells. Put plainly: Cellular pERK HTRF assay (KRAS_G12C pERK). In kind it is cell-based, human. Particulars: Homo sapiens, MIA PaCa-2, 4 hours incubation, read-out: G12C_pERK. Summed up:
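Phospho-ERK1/2 HTRF readout (665 and 620 nm) in lysed MIA PaCa-2 cells, antibodies incubated overnight at room temperature. Cells seeded the day before and treated with G12C compounds for 4 h at 37 °C; IC50 fitted to percent inhibition against log inhibitor concentration.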
(In general: In TR-FRET formats the signal depends on donor and acceptor labels being close together.)

For the next assay, the target named is KRAS G12C (Homo sapiens, UniProt P01116, G12C). Kind of assay: GDP-GTP exchange assay (KRAS_G12C exchange). Particulars: bodipy-GDP loaded KRAS G12C 2.5 nM, SOS1 150 nM, GppNHp; 2 hours pre-incubation, 2 hours reaction; read-out: G12C_exchange. The assay is classed as biochemical. In short, it runs like this:
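Fluorescence exchange of bodipy-GDP for GppNHp, SOS1-driven, read at 485/520 nm; IC50 from four-parameter variable-slope fit. Both mutants used 2.5 nM final labelled protein and a 2 h compound pre-incubation. G12C reaction had 500 uM GppNHp and 150 nM SOS1 for 2 h; G12D ran 4 h.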

The structures appear in SMILES notation.

KRAS G12C, sequence (P01116 1-188 isoform P01116-2 G12C): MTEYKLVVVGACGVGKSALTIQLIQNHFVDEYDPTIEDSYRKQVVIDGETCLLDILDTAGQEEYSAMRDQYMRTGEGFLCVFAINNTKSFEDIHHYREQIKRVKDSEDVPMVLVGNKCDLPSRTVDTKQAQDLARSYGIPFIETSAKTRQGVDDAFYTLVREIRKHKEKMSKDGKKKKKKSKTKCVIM

As for `C=CC(=O)N1CCC(n2nnc3c(N4CC(C)(N(C)C)C4)nc4c(F)c(-c5cccc(C)c5)c(Cl)cc4c32)C[C@H]1CC#N` (stereo partly drawn) [Example 211, 2-((2S)-1-acryloyl-4-(8-chloro-4-(3-(dimethylamino)-3-methylazetidin-1-yl)-6-fluoro-7-(m-tolyl)-1H-[1,2,3]triazolo[4,5-c]quinolin-1-yl)piperidin-2-yl)acetonitrile], the IC50 (in assay [1]; at KRAS G12C) was not above 100 nM each time.

For `C=CC(=O)N1CCC(n2c(=O)[nH]c3c(OC[C@@H]4CCCN4C)nc4c(F)c(-c5cc(O)cc6ccccc56)c(Cl)cc4c32)CC1` [Example 10, 1-(1-Acryloylpiperidin-4-yl)-8-chloro-6-fluoro-7-(3-hydroxynaphthalen-1-yl)-4-(((S)-1-methylpyrrolidin-2-yl)methoxy)-1,3-dihydro-2H-imidazo[4,5-c]quinolin-2-one], the IC50 is 100 to 1000 nM in assay [1] and not above 100 nM at KRAS G12C.

`C=CC(=O)N1CC[C@H](n2cnc3c(N4CC(N(C)C)C4)nc4c(F)c(-c5ccccc5Cl)c(Cl)cc4c32)C[C@H]1CC#N` [Example 57, 2-((2S,4S)-1-acryloyl-4-(8-chloro-7-(2-chlorophenyl)-4-(3-(dimethylamino)-azetidin-1-yl)-6-fluoro-1H-imidazo[4,5-c]quinolin-1-yl)piperidin-2-yl)acetonitrile]: the IC50 (in assay [1]; on KRAS G12C) was not above 100 nM in each case.

For the compound `C=CC(=O)N1CC[C@H](n2cnc3c(N4CC(N(C)C)C4)nc4c(F)c(-c5cccc(Cl)c5Cl)c(Cl)cc4c32)C[C@H]1CC#N` [Example 107, 2-((2S,4S)-1-acryloyl-4-(8-chloro-7-(2,3-dichlorophenyl)-4-(3-(dimethylamino)azetidin-1-yl)-6-fluoro-1H-imidazo[4,5-c]quinolin-1-yl)piperidin-2-yl)acetonitrile], the IC50 (in assay [1]; on KRAS G12C) was not above 100 nM throughout.

`CC#CC(=O)N1CC[C@H](n2nnc3c(N4CC(C)(N(C)C)C4)nc4c(F)c(-c5ccc(F)c6cccnc56)c(C(F)(F)F)cc4c32)C[C@H]1CC#N` [Example 234, 2-((2S,4S)-1-(but-2-ynoyl)-4-(4-(3-(dimethylamino)-3-methylazetidin-1-yl)-6-fluoro-7-(5-fluoroquinolin-8-yl)-8-(trifluoromethyl)-1H-[1,2,3]triazolo[4,5-c]quinolin-1-yl)piperidin-2-yl)acetonitrile]: the IC50 (in assay [1]; at KRAS G12C) was not above 100 nM throughout.

For the compound `C=CC(=O)N1CC[C@H](n2nnc3c(N4CC(N(C)C)C4)nc4c(F)c(-c5cccc(Cl)c5C)c(Cl)cc4c32)C[C@H]1CC#N` [Example 112, 2-((2S,4S)-1-acryloyl-4-(8-chloro-7-(3-chloro-2-methylphenyl)-4-(3-(dimethylamino)azetidin-1-yl)-6-fluoro-1H-[1,2,3]triazolo[4,5-c]quinolin-1-yl)piperidin-2-yl)acetonitrile], the IC50 (in assay [1]; on KRAS G12C) was not above 100 nM each time.

Take `C=CC(=O)N1CC[C@H](n2cnc3c(-c4cccnc4C)nc4c(F)c(-c5cccc(Cl)c5C)c(Cl)cc4c32)C[C@H]1CC#N` [Example 173, 2-((2S,4S)-1-acryloyl-4-(8-chloro-7-(3-chloro-2-methylphenyl)-6-fluoro-4-(2-methylpyridin-3-yl)-1H-imidazo[4,5-c]quinolin-1-yl)piperidin-2-yl)acetonitrile]: the IC50 (in assay [1]; on KRAS G12C) was not above 100 nM in each case.

Take `CC#CC(=O)N1CCC(n2nnc3c(N4CC(C)(N(C)C)C4)nc4c(F)c(-c5cccc6cccc(Cl)c56)c(Cl)cc4c32)C[C@H]1CC#N` (single isomer, unassigned) [Example 218a]: the IC50 (in assay [1]; at KRAS G12C) was not above 100 nM throughout.

On to `C=CC(=O)N1CC[C@H](n2nnc3c(N4CC(N(C)C)C4)nc4c(Cl)c(-c5cc(F)cc6cccnc56)c(Cl)cc4c32)C[C@H]1CC#N` (single isomer, unassigned) [Example 284a], for which the IC50 (in assay [1]; at KRAS G12C) was not above 100 nM throughout.

The values are drawn from patent publication US20210269434A1, “TRICYCLIC COMPOUNDS AS INHIBITORS OF KRAS” (Incyte Corporation, priority 2020, published 2021).
